{"source": "patent US9527807B2", "about": "“Sulfonamide derivative and use thereof” (Takeda Pharmaceutical Company Limited, priority 2011, dated 2016)", "note": "Counter-ions that a name gives are not always drawn."}
{"biological_target": "T1, AMPA receptor (human GluR1 flip/stargazin expressed in CHO-K1 cells) (Homo sapiens, UniProt P42261)", "T1 construct": "expressed in transfected cells; host or cells: CHO-K1", "T1 sequence (P42261 19-906 isoform P42261-2 limits assumed)": "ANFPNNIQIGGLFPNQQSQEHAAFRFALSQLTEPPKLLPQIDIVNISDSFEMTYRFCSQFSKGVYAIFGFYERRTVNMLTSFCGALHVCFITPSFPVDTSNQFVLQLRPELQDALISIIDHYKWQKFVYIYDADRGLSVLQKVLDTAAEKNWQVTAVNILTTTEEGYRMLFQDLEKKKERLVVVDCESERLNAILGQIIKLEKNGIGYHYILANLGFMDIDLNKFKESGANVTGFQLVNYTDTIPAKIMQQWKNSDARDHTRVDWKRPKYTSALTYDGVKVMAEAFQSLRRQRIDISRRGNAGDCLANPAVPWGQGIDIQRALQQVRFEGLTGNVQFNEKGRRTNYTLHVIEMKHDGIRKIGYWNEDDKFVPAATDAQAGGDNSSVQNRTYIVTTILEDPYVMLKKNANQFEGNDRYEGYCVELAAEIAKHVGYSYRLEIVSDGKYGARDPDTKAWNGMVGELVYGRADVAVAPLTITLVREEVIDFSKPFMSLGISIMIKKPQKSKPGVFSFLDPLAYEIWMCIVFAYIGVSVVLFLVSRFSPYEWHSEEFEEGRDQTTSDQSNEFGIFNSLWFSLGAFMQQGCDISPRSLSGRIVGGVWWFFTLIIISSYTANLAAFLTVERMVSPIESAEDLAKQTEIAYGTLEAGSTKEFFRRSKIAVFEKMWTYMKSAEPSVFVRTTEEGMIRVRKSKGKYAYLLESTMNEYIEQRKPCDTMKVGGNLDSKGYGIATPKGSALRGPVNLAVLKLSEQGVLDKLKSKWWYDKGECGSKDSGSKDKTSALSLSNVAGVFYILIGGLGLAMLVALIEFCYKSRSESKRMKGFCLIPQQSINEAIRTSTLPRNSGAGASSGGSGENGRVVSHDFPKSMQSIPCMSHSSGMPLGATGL", "T1 sequence (Q9Y698 whole entry partner)": "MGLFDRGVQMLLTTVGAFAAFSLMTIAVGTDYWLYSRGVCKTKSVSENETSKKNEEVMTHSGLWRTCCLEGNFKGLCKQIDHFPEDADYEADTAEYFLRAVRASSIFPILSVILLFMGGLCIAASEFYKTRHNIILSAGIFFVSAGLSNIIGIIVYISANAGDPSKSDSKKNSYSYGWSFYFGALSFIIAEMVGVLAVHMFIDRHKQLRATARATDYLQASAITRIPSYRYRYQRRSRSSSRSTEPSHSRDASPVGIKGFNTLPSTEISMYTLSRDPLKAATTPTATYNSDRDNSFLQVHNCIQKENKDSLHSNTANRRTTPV", "experiment": "AMPA receptor function enhancing activity using calcium influx as index", "assay_type": "cell-based", "conditions": "change in fluorescence level in 3 min, 100% = 3 mM glutamic acid + 300 μM cyclothiazide, 0% = 3 mM glutamic acid only", "source_text": "Human GluR1 flip cDNA was amplified by PCR using forward primer […] (SEQ ID NO: 1) and reverse primer […] (SEQ ID NO: 2) artificially synthesized using human brain-derived cDNA (BD Bio science) as a template. The amplified product was digested with restriction enzymes EcoRI, NotI (TAKARA SHUZO CO. LTD.), and incorporated into the same site of pcDNA3.1(+) (Invitrogen) to construct pcDNA3.1(+)/human GluR1 flip gene. Human stargazin cDNA was amplified by PCR using forward primer […] (SEQ ID NO: 3) and reverse primer. […] (SEQ ID NO: 4) artificially synthesized using human hippocampus cDNA as a template. The amplified product was digested with restriction enzymes XhoI, BamHI (TAKARA SHUZO CO. LTD.), and incorporated into the same site of pcDNA3.1(−) (Invitrogen) to construct pcDNA3.1 Zeo(−)/human stargazin gene.\n(2) Construction of GluR1 Flip/Stargazin Expressing Cell\nCHO-K1 cells passaged in a culture medium (Ham's F12 medium (Invitrogen) added with 10% inactivated fetal bovine serum (Morgate) and penicillin, streptomycin (Invitrogen)) were detached with 0.05% trypsin, 0.53 mM EDTA (Invitrogen) diluted with D-PBS(−). The detached cells were suspended in a culture medium, and recovered by a centrifugation operation at 1,000 rpm. The recovered cells were suspended again in D-PBS(−), and added to a 0.4 cm electroporation cuvette (BioRad). pcDNA3.1(+)/human GluR1 flip gene (5 μg) and pcDNA3.1 Zeo(−)/human stargazin gene (15 μg) were added, and the mixture was introduced into CHO-K1 cells using Gene Pulser II (BioRad) under the conditions of 950 μFd, […]. The introduced cells were cultured overnight in a culture medium and, the next day, plated in a 96 well plate at 250 cells/well using a selection medium (culture medium added with Zeocin (Invitrogen) to 250 μg/mL). Clones showing drug resistance were selected, and GluR1 flip/stargazin expressing clones were selected by an assay method using calcium influx as an index as shown below.\n(3) Measurement Method of AMPA Receptor Function Enhancing Activity of Compound Using Calcium Influx as Index\nCHO-K1/GluR1 flip/stargazin expressing cells were plated on a 384 well black transparent bottom plate (FMAT4307723) at 0.5×10^4 cells/well, and cultured in a 37° C., CO2 incubator (SANYO Electric Co., Ltd.) for 2 days. The medium in the cell plate was removed, and a calcium indicator (Calcium 4 Assay Kit, Molecular. Devices) containing 1.25 mM probenecid (Invitrogen) was added at 25 μL/well and the well was left standing in 37° C., CO2 incubator for 1 hr. The cell plate was set in FLITRtetra (Molecular Devices), a mixture (12.5 μL) of 9 mM glutamic acid diluted with assay buffer B (HBSS (Invitrogen), 0.1% BSA, 10 mM HEPES) and a test compound was added, and the amount of change in fluorescence level in 3 min was measured. In the definition here, the amount of change in fluorescence level of well added with glutamic acid at final concentration 3 mM and 300 μM cyclothiazide (TOCRIS) is 100%, the amount of change in fluorescence level of well added only with glutamic acid at final concentration 3 mM is 0%, and the compound activity was calculated according to the following formula. activity (%)=(X−C)/(T−C)×100 T: amount of change in fluorescence level of well added with glutamic acid at final concentration 3 mM and 300 μM cyclothiazide C: amount of change in fluorescence level of well added only with glutamic acid at final concentration 3 mM X: amount of change in fluorescence level of well added with to test compound", "units": {"activity (%)": "%"}}
{"smiles": "CS(=O)(=O)N[C@H]1CCCO[C@@H]1COc1ccc(-c2ccc(C#N)cn2)cc1", "note": "(racemic) [Example 164, 1,5-anhydro-6-O-[4-(5-cyanopyridin-2-yl)phenyl]-2,3,4-trideoxy-4-[(methylsulfonyl)amino]-DL-erythro-hexitol]", "activity (%)": 76}
{"smiles": "CCS(=O)(=O)N[C@H]1CCOC[C@@H]1COc1ccc(-c2ccccn2)cc1", "note": "(relative stereo) [Example 137, trans-N-{3-[(4-pyridin-2-ylphenoxy)methyl]tetrahydro-2H-pyran-4-yl}ethanesulfonamide]", "activity (%)": 91}
{"smiles": "CCS(=O)(=O)N[C@H]1CCOC[C@@H]1COc1ccc(-n2cnc(C)c2)cc1", "note": "(relative stereo) [Example 139, trans-N-[3-{[4-(4-methyl-1H-imidazol-1-yl)phenoxy]methyl}tetrahydro-2H-pyran-4-yl]ethanesulfonamide]", "activity (%)": 97}
{"smiles": "CCS(=O)(=O)N[C@H]1CCOC[C@@H]1COc1ccc(-n2cc(Cl)cn2)c(F)c1", "note": "(racemic) [Example 489, N-[(3RS,4SR)-3-{[4-(4-chloro-1H-pyrazol-1-yl)-3-fluorophenoxy]methyl}tetrahydro-2H-pyran-4-yl]ethanesulfonamide]", "activity (%)": 99}
{"smiles": "CCS(=O)(=O)N[C@H]1CCCC[C@@H]1COc1ccc(-n2cccn2)cc1", "note": "(relative stereo) [Example 60, trans-N-[2-{[4-(1H-pyrazol-1-yl)phenoxy]methyl}cyclohexyl]ethane-sulfonamide]", "activity (%)": 80}
{"smiles": "O=S(=O)(N[C@H]1CCOC[C@@H]1COc1ccc(-n2cc(Cl)cn2)cc1)C1CC1", "note": "[Example 277, N-[(3R,4S)-3-{[4-(4-chloro-1H-pyrazol-1-yl)phenoxy]methyl}tetrahydro-2H-pyran-4-yl]cyclopropanesulfonamide]", "activity (%)": 90}
{"smiles": "Cc1cnn(-c2ccc(OC[C@H]3COCC[C@@H]3NS(=O)(=O)C(F)(F)F)cc2)c1", "note": "(racemic) [Example 280, 1,1,1-trifluoro-N-[(3RS,4SR)-3-{[4-(4-methyl-1H-pyrazol-1-yl)phenoxy]methyl}tetrahydro-2H-pyran-4-yl]methanesulfonamide]", "activity (%)": 108}
{"smiles": "CS(=O)(=O)N[C@H]1CCOC[C@@H]1COc1ccc(-n2cc(Cl)cn2)cc1", "note": "[Example 269, N-[(3R,4S)-3-{[4-(4-chloro-1H-pyrazol-1-yl)phenoxy]methyl}tetrahydro-2H-pyran-4-yl]methanesulfonamide]", "activity (%)": 93}
{"smiles": "O=S(=O)(N[C@H]1CCOC[C@@H]1COc1ccc(-c2ncc(Cl)cc2F)cc1)C1CC1", "note": "(racemic) [Example 262, N-[(3RS,4SR)-3-{[4-(5-chloro-3-fluoropyridin-2-yl)phenoxy]methyl}tetrahydro-2H-pyran-4-yl]cyclopropanesulfonamide]", "activity (%)": 89}
{"smiles": "CCS(=O)(=O)N[C@H]1CCOC[C@@H]1COc1ccc(C(C)=O)cc1", "note": "(relative stereo) [Example 135, trans-N-{3-[(4-acetylphenoxy)methyl]tetrahydro-2H-pyran-4-yl}ethanesulfonamide]", "activity (%)": 88}
{"smiles": "CCS(=O)(=O)N[C@H]1CCSC[C@@H]1COc1ccc(-n2cc(C#N)cn2)cc1", "note": "[Example 522, N-((3S,4S)-3-((4-(4-cyano-1H-pyrazol-1-yl)phenoxy)methyl)tetrahydro-2H-thiopyran-4-yl)ethanesulfonamide]", "activity (%)": 95}
{"smiles": "CS(=O)(=O)N[C@H]1CCOC[C@@H]1COc1ccc(-c2ccc(F)cn2)c(F)c1", "note": "(single isomer, unassigned) [Example 477, N-[(3R,4S)-3-{[3-fluoro-4-(5-fluoropyridin-2-yl)phenoxy]methyl}tetrahydro-2H-pyran-4-yl]methanesulfonamide or N-[(3S,4R)-3-{[3-fluoro-4-(5-fluoropyridin-2-yl)phenoxy]methyl}tetrahydro-2H-pyran-4-yl]methanesulfonamide]", "activity (%)": 68}
{"smiles": "CCS(=O)(=O)N[C@H]1CCOC[C@@H]1COc1ccc(-c2cccnc2C)cc1", "note": "(racemic) [Example 322, N-[(3RS,4SR)-3-{[4-(2-methylpyridin-3-yl)phenoxy]methyl}tetrahydro-2H-pyran-4-yl]ethanesulfonamide]", "activity (%)": 91}
{"smiles": "CCS(=O)(=O)N[C@H]1CCOC[C@@H]1COc1ccc(-c2ncc(Cl)s2)cc1", "note": "(racemic) [Example 261, N-[(3RS,4SR)-3-{[4-(5-chloro-1,3-thiazol-2-yl)phenoxy]methyl}tetrahydro-2H-pyran-4-yl]ethanesulfonamide]", "activity (%)": 92}
{"smiles": "Cn1cccc(-c2ccc(OC[C@H]3CSCC[C@@H]3NS(C)(=O)=O)cc2)c1=O", "note": "[Example 518, N-((3S,4S)-3-((4-(1-methyl-2-oxo-1,2-dihydropyridin-3-yl)phenoxy)methyl)tetrahydro-2H-thiopyran-4-yl)methanesulfonamide]", "activity (%)": 95}
{"smiles": "CS(=O)(=O)N[C@H]1COCC[C@@H]1COc1ccc(-c2ccc(Cl)cn2)cc1", "note": "[Example 205, N-[(3R,4S)-4-{[4-(5-chloropyridin-2-yl)phenoxy]methyl}tetrahydro-2H-pyran-3-yl]methanesulfonamide]", "activity (%)": 65}
{"smiles": "CCS(=O)(=O)N[C@H]1CCC(F)(F)C[C@@H]1COc1ccc(-c2ncc(C#N)cc2F)cc1", "note": "[Example 222, N-[(1S,2S)-2-{[4-(5-cyano-3-fluoropyridin-2-yl)phenoxy]methyl}-4,4-difluorocyclohexyl]ethanesulfonamide]", "activity (%)": 89}
{"smiles": "CCS(=O)(=O)N[C@@H]1CCCC[C@H]1COc1ccc(CCC#N)cc1", "note": "(relative stereo) [Example 50, trans-N-[2-{[4-(2-cyanoethyl)phenoxy]methyl}cyclohexyl] ethanesulfonamide]", "activity (%)": 78}
{"smiles": "CS(=O)(=O)N[C@H]1CCOC[C@@H]1COc1ccc(-n2cc(Cl)cn2)cc1", "note": "(racemic) [Example 270, N-[(3RS,4SR)-3-{[4-(4-chloro-1H-pyrazol-1-yl)phenoxy]methyl}tetrahydro-2H-pyran-4-yl]methanesulfonamide]", "activity (%)": 74}
{"smiles": "CS(=O)(=O)N[C@H]1CCOC[C@@H]1COc1ccc(-n2cccn2)c(F)c1F", "note": "[Example 425, N-[(3R,4S)-3-{[2,3-difluoro-4-(1H-pyrazol-1-yl)phenoxy]methyl}tetrahydro-2H-pyran-4-yl]methanesulfonamide hydrochloride]", "activity (%)": 96}
{"smiles": "O=S(=O)(N[C@H]1CCOC[C@@H]1COc1ccc(-c2ccc(F)cn2)c(F)c1)C1CC1", "note": "(racemic) [Example 243, N-[(3RS,4SR)-3-{[3-fluoro-4-(5-fluoropyridin-2-yl)phenoxy]methyl}tetrahydro-2H-pyran-4-yl]cyclopropanesulfonamide]", "activity (%)": 96}
{"smiles": "CCS(=O)(=O)N[C@H]1CCOC[C@@H]1COc1ccc(-c2ccc(F)cn2)c(F)c1", "note": "(single isomer, unassigned) [Example 313, N-[(3R,4S)-3-{[3-fluoro-4-(5-fluoropyridin-2-yl)phenoxy]methyl}tetrahydro-2H-pyran-4-yl]ethanesulfonamide or N-[(3S,4R)-3-{[3-fluoro-4-(5-fluoropyridin-2-yl)phenoxy]methyl}tetrahydro-2H-pyran-4-yl]ethanesulfonamide]", "activity (%)": 99}
{"smiles": "O=S(=O)(N[C@@H]1CCCC[C@H]1COc1ccc(C2CC2)cc1)C1CC1", "note": "(relative stereo) [Example 12, trans-N-[2-[(4-cyclopropylphenoxy)methyl]cyclohexyl]cyclopropanesulfonamide]", "activity (%)": 72}
{"smiles": "O=S(=O)(N[C@H]1COCC[C@@H]1COc1ccc(-c2ncc(Cl)cc2F)cc1)C1CC1", "note": "[Example 383, N-[(3R,4S)-4-{[4-(5-chloro-3-fluoropyridin-2-yl)phenoxy]methyl}tetrahydro-2H-pyran-3-yl]cyclopropanesulfonamide]", "activity (%)": 60}
